Experimental data taken from ChEMBL document CHEMBL5385913, “First-in-Class Dual EZH2-HSP90 Inhibitor Eliciting Striking Antiglioblastoma Activity In Vitro and In Vivo” (J Med Chem, 2024).
The source made the active and inactive calls. The calls are words filed in the database; no cut-off is given here.

Key:
[1] = tested on: GBM; assay: Antitumor activity against TMZ-resistant patient-derived human GBM cells xenografted in NOD.CB17-Prkdcscid/NCrCrl mouse assessed as reduction in tumor growth at 5 to 15 mg/kg, ip treated twice per week in presence of Tazemetostat; assay type: functional, organism-based; conditions: dose 5-15 mg/kg
[2] = Toxicity in NOD.CB17-Prkdcscid/NCrCrl mouse xenografted with TMZ-resistant patient-derived human GBM cells at 5 to 15 mg/kg, ip treated twice per week in presence of Tazemetostat; assay type: organism-based; conditions: in vivo, dose 5-15 mg/kg

CC(C)c1cc(-c2n[nH]c(=O)n2-c2ccc3c(ccn3C)c2)c(O)cc1O [GANETESPIB]
Activity [1]: Active
Activity [2]: Toxic
